Earlier results as cited in US10344034B2, “Pyrazolopyrimidone or Pyrrolotriazone derivatives, method of preparing same, and pharmaceutical applications thereof” (Shanghai Hengrui Pharmaceutical Co., Ltd., priority 2013, dated 2019).

Conditions: cited from earlier work

In the case of `COc1cccc(-c2c(C)n(Cc3c(F)cccc3C(F)(F)F)c(=O)n(C[C@H](NCCCC(=O)O)c3ccccc3)c2=O)c1F` [elagolix, Elagolix], the safety and tolerability (endometriosis phase II trial) is given as “well verified” and the serum estrogen level (women with endometriosis, elagolix 150 or 250 mg qd, vs leuprorelin depot and placebo) is given as “lower than that of the leuprorelin treatment group and placebo group”.
